In patent publication US12459951B2, “Compounds that interact with RAS superfamily proteins for treatment of cancers, inflammatory diseases, rasopathies, and fibrotic disease” (SHY Therapeutics, LLC, priority 2022, dated 2025):

Assays:
[1] = tested on: MiaPaca-2 (expressing KRAS G12C mutant); assay: Proliferation Assay (Cell Viability Assay); assay type: cell-based; details: Homo sapiens, MIA PaCa-2; read-out: Proliferation in MiaPaca-2: IC50
Method in brief: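 MiaPaca-2 cells (KRAS G12C) were grown in DMEM-high glucose with 10% FBS, seeded at 2000–5000 cells/well and cultured overnight. Compounds were added at 10 μM final, or as serial dilutions for IC50, in 0.3% DMSO/10% FBS for 2–4 days at 37 °C, 5% CO2. Viability was measured with CellTiter 96 Aqueous One and % inhibition calculated.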

[2] = tested on: KRas G12C mutant; assay: Ras GTP Binding Domain Inhibition Assay (Ras Superfamily Assay); details: 20 μM compound; for KRas G12C mutant + SOS: % inh.: with SOS; for KRas G12C mutant: % inh.: without SOS
Method in brief: (§1)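 Binding of 100 nM fluorescent GTP (Cy3 or Cy5, 45 min, room temperature) was read after washes from plate-captured His-tagged protein. Beforehand, compounds at 20 μM or in dilution series for IC50 sat 3 h on the protein in Tris buffer pH 7.4 or 7.0 with 1% DMSO, Sos GEF optionally added for the last hour.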

[3] = tested on: KRas wild type; assay: as above; details: 20 μM compound; for KRas wild type + SOS: % inh.: with SOS; for KRas wild type: % inh.: without SOS
Method in brief: as §1

[4] = target: T1, Rac-1 (Homo sapiens, UniProt P63000); assay: as above; details: read-out: Rac-1: % inh.
T1 construct: made in house
Method in brief: as §1

| SMILES | IC50 [1] [nM] | KRas G12C mutant + SOS: % inh. [2] | KRas G12C mutant: % inh. [2] | KRas wild type + SOS: % inh. [3] | KRas wild type: % inh. [3] | inhibition at 20 µM [4] [%] |
| --- | --- | --- | --- | --- | --- | --- |
| COCC1CCN(c2nc(-c3ccccn3)nn3cc(-c4ccn(C(C)C)n4)c(-c4ccccc4)c23)C1 (racemic) [Compound 25, rac 6-(1-Isopropyl-1H-pyrazol-3-yl)-4-(3-(methoxymethyl)pyrrolidin-1-yl)-5-phenyl-2-(pyridin-2-yl)pyrrolo[2,1-f][1,2,4]triazine] | > 1000 | A (A = 1-25% inhibition) | A (A = 1-25% inhibition) | A (A = 1-25% inhibition) | A (A = 1-25% inhibition) | 1 to 25 |
| COC[C@@H]1CC[C@@H]1CNc1nc(-c2ccccn2)nn2cc(-c3ccn(C(C)C)n3)c(-c3ccccc3)c12 (racemic) [Compound 26, rac 6-(1-Isopropyl-1H-pyrazol-3-yl)-N-(((1S,2R)-2-(methoxymethyl)cyclobutyl)methyl)-5-phenyl-2-(pyridin-2-yl)pyrrolo[2,1-f][1,2,4]triazin-4-amine] | 510 to 1000 | A (A = 1-25% inhibition) | 0 (0 = 0% inhibition) | 0 (0 = 0% inhibition) | A (A = 1-25% inhibition) | 0 |
| COC1CCCN(c2nc(-c3ccccn3)nn3cc(-c4ccn(C(C)C)n4)c(-c4ccccc4)c23)C1 (racemic) [Compound 27, rac 6-(1-Isopropyl-1H-pyrazol-3-yl)-4-(3-methoxypiperidin-1-yl)-5-phenyl-2-(pyridin-2-yl)pyrrolo[2,1-f][1,2,4]triazine] | > 1000 | 0 (0 = 0% inhibition) | 0 (0 = 0% inhibition) | A (A = 1-25% inhibition) | A (A = 1-25% inhibition) | 1 to 25 |
| COc1cccc(-c2cn3nc(-c4nccn4C)nc(N[C@@H]4CC[C@H](OC)C4)c3c2-c2ccccc2)c1Cl (racemic) [Compound 33, rac 6-(2-Chloro-3-methoxyphenyl)-N-((1R,3S)-3-methoxycyclopentyl)-2-(1-methyl-1H-imidazol-2-yl)-5-phenylpyrrolo[2,1-f][1,2,4]triazin-4-amine] | 510 to 1000 | 0 (0 = 0% inhibition) | A (A = 1-25% inhibition) | 0 (0 = 0% inhibition) | A (A = 1-25% inhibition) | 0 |
| CO[C@H]1CC[C@@H](Nc2nc(-c3nccn3C)nn3cc(-c4ccn(C(C)C)n4)c(C(C)C)c23)C1 (racemic) [Compound 36, rac 5-Isopropyl-6-(1-isopropyl-1H-pyrazol-3-yl)-N-((1R,3S)-3-methoxycyclopentyl)-2-(1-methyl-1H-imidazol-2-yl)pyrrolo[2,1-f][1,2,4]triazin-4-amine] | > 1000 | 0 (0 = 0% inhibition) | A (A = 1-25% inhibition) | A (A = 1-25% inhibition) | 0 (0 = 0% inhibition) | 0 |
| COc1cccc(-c2cn3nc(-c4nccn4C)nc(N[C@@H]4CC[C@@H](OC)C4)c3c2-c2ccccc2)c1F (racemic) [Compound 43, rac 6-(2-Fluoro-3-methoxyphenyl)-N-((1R,3R)-3-methoxycyclopentyl)-2-(1-methyl-1H-imidazol-2-yl)-5-phenylpyrrolo[2,1-f][1,2,4]triazin-4-amine] | > 1000 | 0 (0 = 0% inhibition) | 0 (0 = 0% inhibition) | 0 (0 = 0% inhibition) | 0 (0 = 0% inhibition) | 1 to 25 |
| COc1cccc(-c2cn3nc(-c4nccn4C)nc(N[C@@H]4CC[C@@H](OC)C4)c3c2-c2ccccn2)c1F (racemic) [Compound 46, rac 6-(2-Fluoro-3-methoxyphenyl)-N-((1R,3R)-3-methoxycyclopentyl)-2-(1-methyl-1H-imidazol-2-yl)-5-(pyridin-2-yl)pyrrolo[2,1-f][1,2,4]triazin-4-amine] | > 1000 | A (A = 1-25% inhibition) | B (B = 26-49% inhibition) | A (A = 1-25% inhibition) | A (A = 1-25% inhibition) | 50 to 75 |
| COc1cccc(Nc2nc(-c3nccn3C)nn3cc(-c4ccn(C(C)C)n4)c(-c4ccccc4)c23)n1 [Compound 23, 6-(1-Isopropyl-1H-pyrazol-3-yl)-N-(6-methoxypyridin-2-yl)-2-(1-methyl-1H-imidazol-2-yl)-5-phenylpyrrolo[2,1-f][1,2,4]triazin-4-amine] | > 1000 | 0 (0 = 0% inhibition) | A (A = 1-25% inhibition) | A (A = 1-25% inhibition) | 0 (0 = 0% inhibition) | 1 to 25 |
| COc1cccc(-c2cn3nc(-c4nccn4C)nc(O)c3c2-c2ccccc2)c1Cl [Compound 28, 6-(2-Chloro-3-methoxyphenyl)-2-(1-methyl-1H-imidazol-2-yl)-5-phenylpyrrolo[2,1-f][1,2,4]triazin-4-ol] | > 1000 | A (A = 1-25% inhibition) | A (A = 1-25% inhibition) | A (A = 1-25% inhibition) | A (A = 1-25% inhibition) | 26 to 49 |
| COCCNc1nc(-c2nccn2C)nn2cc(-c3cccc(OC)c3Cl)c(-c3ccccc3)c12 [Compound 29, 6-(2-Chloro-3-methoxyphenyl)-N-(2-methoxyethyl)-2-(1-methyl-1H-imidazol-2-yl)-5-phenylpyrrolo[2,1-f][1,2,4]triazin-4-amine] | 510 to 1000 | A (A = 1-25% inhibition) | 0 (0 = 0% inhibition) | 0 (0 = 0% inhibition) | A (A = 1-25% inhibition) | 0 |
| COCCCNc1nc(-c2nccn2C)nn2cc(-c3cccc(OC)c3Cl)c(-c3ccccc3)c12 [Compound 30, 6-(2-Chloro-3-methoxyphenyl)-N-(3-methoxypropyl)-2-(1-methyl-1H-imidazol-2-yl)-5-phenylpyrrolo[2,1-f][1,2,4]triazin-4-amine] | 510 to 1000 | 0 (0 = 0% inhibition) | A (A = 1-25% inhibition) | 0 (0 = 0% inhibition) | A (A = 1-25% inhibition) | 0 |
| COc1cccc(-c2cn3nc(-c4nccn4C)nc(N[C@H]4C[C@@H](OC)C4)c3c2-c2ccccc2)c1Cl [Compound 31, 6-(2-Chloro-3-methoxyphenyl)-N-((1s,3s)-3-methoxycyclobutyl)-2-(1-methyl-1H-imidazol-2-yl)-5-phenylpyrrolo[2,1-f][1,2,4]triazin-4-amine] | > 1000 | 0 (0 = 0% inhibition) | A (A = 1-25% inhibition) | 0 (0 = 0% inhibition) | A (A = 1-25% inhibition) | 1 to 25 |
| COc1cccc(-c2cn3nc(-c4nccn4C)nc(N[C@H]4C[C@H](OC)C4)c3c2-c2ccccc2)c1Cl [Compound 32, 6-(2-Chloro-3-methoxyphenyl)-N-((1r,3r)-3-methoxycyclobutyl)-2-(1-methyl-1H-imidazol-2-yl)-5-phenylpyrrolo[2,1-f][1,2,4]triazin-4-amine] | 150 to 500 | 0 (0 = 0% inhibition) | 0 (0 = 0% inhibition) | 0 (0 = 0% inhibition) | A (A = 1-25% inhibition) | 0 |
| COCCNc1nc(-c2nccn2C)nn2cc(-c3ccn(C(C)C)n3)c(C(C)C)c12 [Compound 35, 5-Isopropyl-6-(1-isopropyl-1H-pyrazol-3-yl)-N-(2-methoxyethyl)-2-(1-methyl-1H-imidazol-2-yl)pyrrolo[2,1-f][1,2,4]triazin-4-amine] | > 1000 | 0 (0 = 0% inhibition) | A (A = 1-25% inhibition) | A (A = 1-25% inhibition) | A (A = 1-25% inhibition) | 0 |
| COc1cccc(Nc2nc(-c3nccn3C)nn3ccc(C)c23)n1 [Compound 38, N-(6-Methoxypyridin-2-yl)-5-methyl-2-(1-methyl-1H-imidazol-2-yl)pyrrolo[2,1-f][1,2,4]triazin-4-amine] | > 1000 | 0 (0 = 0% inhibition) | 0 (0 = 0% inhibition) | 0 (0 = 0% inhibition) | 0 (0 = 0% inhibition) | 0 |
| COc1cccc(Nc2nc(-c3nccn3C)nn3ccc(-c4ccccc4)c23)n1 [Compound 40, N-(6-Methoxypyridin-2-yl)-2-(1-methyl-1H-imidazol-2-yl)-5-phenylpyrrolo[2,1-f][1,2,4]triazin-4-amine] | > 1000 | 0 (0 = 0% inhibition) | 0 (0 = 0% inhibition) | 0 (0 = 0% inhibition) | 0 (0 = 0% inhibition) | 1 to 25 |
